Measurements: patent US6338963B1, “Use of carbon monoxide dependent guanylyl cyclase modifiers to stimulate neuritogenesis” (NeoTherapeutics, Inc., priority 1994, dated 2002)
Marks after values point to notes of the source that are not given here.

Assays:
[1] = system: C57BL/6 mice; assay: Win-shift test, C57BL/6 mice with age-induced memory deficits; type: in vivo; settings: for subjects performing significantly above chance/total number of subjects: AIT-082 30 mg/kg
Method: Twelve-month old male C57BL/6 mice were screened for performance in the win-shift foraging test. Subjects were tested at various inter-trial time intervals. Subjects who could not perform to criteria (>60% correct) at 10 seconds delay were classified as having a severe deficit. Subjects who performed to criteria at 10 seconds but not at 30 seconds were classified as having a moderate degree of deficit and subjects who performed to criteria at 30 seconds but not at 60 seconds were classified as having mild deficit. As in Example 21, subjects in each group were treated with either AIT-082 or PHY to determine the extent to which the working memory trace was prolonged. The results are presented in Table M directly below and graphically represented in FIG. 10.

[2] = system: rat striatum; assay: MRI of rat striatum injected with NMDA; type: in vivo
Method: T-2 weighted MRI photos of transverse brain 3-mm thick slices were performed (TR/TE=7400/115 ms; matrix 483×1024; FLV 250). Magnetic resonance images were acquired using 1.5 T scanner (Vision, Siemens-Erlangen). […] All animals survived the surgery and continued to receive treatment for an additional three days, at which time they were sacrificed and tissues were collected as described above.

[3] = system: NGF; assay: Two-site ELISA of growth factor protein in rat brain and spinal cord: NGF; type: in vivo, F344 rats
Method: Adult female F344 rats were given either AIT-082 (doses: 30 mg/kg/day or a higher dose of 30 mg/ml (˜3,000 mg/kg/day); n=6 rats per group) in their drinking water, or water alone, as a vehicle for control. The duration of the study was seven days, at which time the rats were anesthesized and perfused with ice-cold saline. The brains of the rats were rapidly removed. The brains were placed on a chilled glass plate and dissected into the following regions: basal forebrain, frontal cortex, parietal cortex, cerebellum, spinal cord, and hippocampal formation. Tissues were stored at −70° C. until assayed in a specific two-site ELISA for either NGF, BDNF, NT-3, or GNDF.
The results are shown in FIGS. 45 (BDNF), 46 (NT-3), 47 (GDNF) and 48 (NGF). For the results shown in FIGS. 45-48, animals were given only water (VEH, n=6) or water with AIT-082 at either 30 mg/kg/day (n=6) or 30 mg/ml (n=6) for seven days. The levels of each growth factor were determined in the frontal cortex (F. Cor.), parietal cortex (P.Cor.), hippocampal formation (Hipp.), basal forebrain (B.F.), cerebellum (Cer.), or spinal cord (Cord) using a specific two-site ELISA for each growth factor.
Adult female rats were given AIT-082 (30 mg/kg/day) in their drinking water or drinking water alone (n=6 for each group) for seven days prior to receiving a bilateral fimbria fornix transection (FFT).
The results are shown in FIGS. 49 (BDNF), 50 (NT-3), 51 (GDNF) and 52 (NGF). […] Levels of the growth factor were determined in frontal cortex (F.Cor.), parietal cortex (P.Cor.), hippocampal formation (Hipp.), basal forebrain (B.F.), cerebellum (Cer.), or spinal cord (Cord) using a specific two-site ELISA for each growth factor. […]
Results are shown in FIGS. 53 (BDNF), 54 (NT3), 55 (GDNF), and 56 (NGF). […] Levels of each growth factor were determined in frontal cortex (F.Cor.), parietal cortex (P. Cor.), hippocampal formation (Hipp.), basal forebrain (B.F.), cerebellum (Cer.) or spinal cord (Cord) using a specific two-site ELISA.

[4] = system: BDNF; assay: Summary of effects on growth factor mRNA and protein (Table R): BDNF; parameters: key: ± = mRNA; + = protein; nt = not tested
From the text: The constellation of effects of AIT-082 on production of mRNA encoding growth factors and on production of growth factor proteins is shown in Table R. The results summarized in […] show both transcriptional and translational effects on growth factors that are in the categories of neurotrophins, pleiotrophins, members of the S100 family of EF hand calcium binding proteins, and members of the TGFβ superfamily. As indicated, effects have been shown at both the mRNA (transcriptional) and protein (translational) levels.

[5] = system: rat cultured astrocytes; assay: Release of radioactively labeled adenine-based purines from rat cultured astrocytes; type: cell-based; settings: 300 μM, 1 hour
Method: The experiments were carried out on cultured astrocytes of rat hippocampus at the fourth day in vitro (DIV), obtained from primary cultures replated in 35 mm Petri dishes ([…] cells/dish) and preloaded with [^3H]-adenosine (5×10^−8 M for a specific activity of 20.0 Ci/mM) for 30 minutes at 37° C.
The effect of AIT-082 on the proportional release of radioactively labeled adenine nucleosides and nucleotides from rat cultured astrocytes is shown in FIGS. 29A and 29B. Culture medium collected during the first hour of the release was analyzed by high performance liquid chromatography (HPLC) and the radioactivity associated with the different adenine compounds was measured and expressed as a percentage of the total radioactivity released. The results are shown for ATP, ADP, and AMP in FIG. 29A, and for adenosine, inosine, and hypoxanthine in FIG. 29B.

SMILES: O=C(CCn1cnc2c(=O)[nH]cnc21)Nc1ccc(C(=O)O)cc1 [AIT-082, N-4-carboxyphenyl-3-(6-oxohydropurin-9-yl)propanamide]
- subjects performing significantly above chance/total number of subjects ([1]; Mild deficit, interval 60 sec): 4/4*
- subjects performing significantly above chance/total number of subjects ([1]; Mild deficit, interval 90 sec): 2/4*
- subjects performing significantly above chance/total number of subjects ([1]; Moderate deficit, interval 10 sec): 6/6*
- subjects performing significantly above chance/total number of subjects ([1]; Moderate deficit, interval 30 sec): 4/6
- subjects performing significantly above chance/total number of subjects ([1]; Moderate deficit, interval 60 sec): 1/6
- subjects performing significantly above chance/total number of subjects ([1]; Moderate deficit, interval 90 sec): 0/6
- subjects performing significantly above chance/total number of subjects ([1]; Severe deficit, interval <10 sec): 0/6
- duration of the memory trace after treatment ([1]; mild deficit group, prolonged from 30): 90 s
- duration of the memory trace after treatment ([1]; moderate deficit group, prolonged from 10): 30 s
- MRI brightness of the lesion ([2]; AIT locally co-injected with NMDA): disappeared
- MRI brightness of the lesion ([2]; systemic (intraperitoneal) AIT-082 60 mg/kg): significantly reduced
- NGF protein levels ([3]; FFT-lesioned rats, 30 mg/kg/day): No significant increases
- NGF protein levels ([3]; aged rats, 30 mg/kg/day 30 days, any brain region): no effect
- NGF protein levels ([3]; intact adult rats): No changes
- BDNF, effect on mRNA/protein production ([4]; Aged Brain): +
- BDNF, effect on mRNA/protein production ([4]; Lesioned Spinal Cord): ±
- BDNF, effect on mRNA/protein production ([4]; Normal Brain): +
- BDNF, effect on mRNA/protein production ([4]; Normal Spinal Cord): +

SMILES: Nc1nc2c(ncn2[C@@H]2O[C@H](CO)[C@@H](O)[C@H]2O)c(=O)[nH]1 [guanosine]
- ADP, proportional release [5]: (6.5 ± 0.7) percentage of the total [^3H]-purines released
- Adenosine, proportional release [5]: (11.9 ± 0.8) percentage of the total [^3H]-purines released
- Inosine, proportional release [5]: (36.0 ± 3.9) percentage of the total [^3H]-purines released
